Test results as given in patent US20250332080A1, “Skin Cell Energy Booster Composition” (CarboCode S.A., priority 2022, published 2025).

System: Reconstructed Human Epidermis (RHE)
Assay: Proteomic (LC-MS/MS) analysis of Reconstructed Human Epidermis treated topically with ceramide in base emulsion
Assay type: cell-based
Details: topical 24 h, 0.01%, 0.03%, 0.15% ceramide in vehicle vs vehicle
Description: FIGS. 1 to 3 show heatmaps using a log 2 scale with up- or downregulation of respective proteins upon treatment with 0.01% (01), 0.03% (03) and 0.15% (15) of respective ceramide in vehicle as compared to vehicle without ceramide (VEH) (FIG. 1: GlcCerNS, FIG. 2: LacCerNS, FIG. 3: CerNG); detailed experimental setup explained in Example 1.
Material and methods: Reconstructed Human Epidermis (RHE) cell culture was used, as this system mimics the in vivo 3D structure of epidermal tissue as well as the conditions and processes that occur in normal epidermis. RHE were cultured using the medium provided by the manufacturer until analysis. RHE were maintained in survival for 24 hours, before RHE were topically treated with lipid in a base emulsion for 24 h. 3 RHE were treated with base emulsion alone and 3 more remained untreated as a control batch (Ctrl). RHE were incubated under classical cell culture conditions (37° C., 5% CO2).
Sample preparation and LC-MS/MS analysis: Protein was extracted using the Pierce Total Protein Extraction Kit (Thermo Fisher) according to manufacturer's recommendations. The protein was mixed with Laemmli buffer and heated to 37° C. for 30 min. Protein concentration was determined by the BCA method and standardized for all samples. The samples were separated by SDS-PAGE and digested with trypsin overnight. The peptides generated were acidified and separated. The mass spectra were queried using Proteome Discoverer (version 2.5). The resulting MS/MS data were queried against the Homo sapiens proteome UP000005640 (20371 reviewed entries). Results were filtered based on unique peptides>2, and global peptide scores. Analyses were performed using Proteome Discoverer 2.5 to check for overall sample quality.
Bioinformatics and statistical analysis: Proteomic analysis returned a mean total of 34961 high-quality peptides corresponding to a mean 2422 identifiable and quantifiable RHE proteins among conditions. Proteins with a p-value<0.05 in at least one of the concentrations tested for a lipid were considered significant and used for pairwise comparisons. Relevant proteins were classified by their biological processes and associated pathways using the publicly available gene ontology (GO) database provided by the Gene Ontology Consortium and Reactome. Interactome analysis was performed using Cytoscape combined with STRING.

Glucosyl ceramide [GlcCer]
upregulation: ATP synthase subunit delta (mitochondrial) protein level | ATP synthase subunit g (mitochondrial) protein level | ATP-dependent zinc metalloprotease YME1L1 protein level | NAD-dependent malic enzyme (mitochondrial) protein level | NADH dehydrogenase [ubiquinone]1 alpha subcomplex subunit 8 protein level | NADH dehydrogenase [ubiquinone]iron-sulfur protein 2 (mitochondrial) protein level | cytochrome c oxidase subunit 6C protein level | phosphomevalonate kinase protein level

lactosyl ceramide
upregulation: ATP synthase subunit delta (mitochondrial) protein level | ATP synthase subunit g (mitochondrial) protein level | ATP-dependent zinc metalloprotease YME1L1 protein level | NAD-dependent malic enzyme (mitochondrial) protein level | cytochrome b-c1 complex subunit 9 protein level | cytochrome c oxidase subunit 2 protein level | cytochrome c oxidase subunit 6C protein level | cytochrome c oxidase subunit NDUFA4 protein level | phosphomevalonate kinase protein level

ceramide NG
upregulation: ATP synthase subunit delta (mitochondrial) protein level | ATP synthase subunit g (mitochondrial) protein level | cytochrome c oxidase subunit 6C protein level | phosphomevalonate kinase protein level
